Results from PMC6344527, “Toxicity and possible mechanisms of action of honokiol from Magnolia denudata seeds against four mosquito species” (Scientific Reports, 2019).
In brackets after ≈: the same amount, converted by molar mass. Read-outs that look alike come from different tables or passages of the source.

Key:
mosquito species larvae = conditions: cited from earlier work
[1] = test system: third-instar larvae of insecticide-susceptible Aedes aegypti; assay: contact mortality bioassay, 24 h exposure; type: in vivo; conditions: for LC50: Aedes aegypti, 24 h; for LC50 / LC90 (mg/L) (95% CI) / LC50 (mg/L) (95% CI): 24 h exposure
Experimental: (§1) A contact mortality bioassay[25] was used to evaluate the toxicity of all compounds against third-instar larvae of the four mosquito species. Each test compound in methanol was suspended in DW with Triton X-100 (20 µL/L). Groups of 20 mosquito larvae were separately placed into paper cups (270 mL) containing each compound solution (250 mL). […] Negative controls consisted of a methanol–Triton X-100 solution in DW.
(§2) Treated and control (methanol–Triton X-100 solution only) larvae were maintained under the same conditions as those used for colony maintenance without providing food. Larval mortalities were determined 24 h post-treatment. […] All treatments were performed three times using 20 larvae per replicate.
(§3) The concentration of the test compounds required to produce 50% AChE inhibitory activity (IC50) was determined using the SAS 9.13 program (Cary: SAS Institute; 2014). Concentration-mortality data were subjected to probit analysis using the SAS 9.13 program. […] Statistical analyses were performed using the SAS 9.13 program. Multiple linear regression and correlation analysis were performed using the SPSS 24 program (Armonk: IBM Corp.; 2016).

[2] = test system: third-instar larvae of insecticide-susceptible Culex pipiens pallens; assay: contact mortality bioassay, 24 h exposure; type: in vivo; conditions: for LC50: Culex pipiens, 24 h; for LC50 / LC90 (mg/L) (95% CI) / LC50 (mg/L) (95% CI): 24 h exposure
Experimental: as §1, §2, §3

[3] = target: acetylcholinesterase (AChE) from third-instar Ae. aegypti larvae (Aedes aegypti, UniProt A4GND7); assay: acetylcholinesterase inhibition assay; type: biochemical; conditions: based on IC50 values
Experimental: The in vitro AChE inhibitory activity of the test compounds was assessed according to the method of Perumalsamy et al.[42]. Third-instar Ae. aegypti larvae were used in all experiments. Whole bodies of 50 larvae were homogenized in 1 mL of ice-cold 0.1 M phosphate buffer (pH 8.0) using a glass tissue homogenizer. After filtering through cheesecloth, the homogenate was centrifuged at 1,000 × g at 4 °C for 5 min. The supernatant was used directly as the enzyme source for AChE. The protein levels were determined using the Bradford Protein Assay Kit (Bio-Rad Laboratories, Hercules, CA, USA) using BSA as the standard. The reaction mixture consisted of 50 µL of the crude enzyme preparation (4.3–4.8 µg protein equivalents), 150 µL of 0.1 M phosphate buffer, 20 µL of 3 mM DTNB in phosphate buffer (pH 7.0), and 1 µL of various concentrations of each test compound in ethanol. The reaction mixture was incubated at 30 °C for 5 min, and 20 µL of 32 mM ATChI was then added to the mixture. After incubation for 30 min, the reaction was terminated by adding 20 µL of 5 mM eserine salicylate. Absorbance was recorded at 412 nm using a VersaMax microplate reader (Molecular Devices, Sunnyvale, CA, USA). […] The results are expressed as the means ± standard errors (SEs) of triplicate samples from three independent experiments.
as §3

[4] = test system: third-instar larvae of insecticide-resistant Anopheles sinensis; assay: contact mortality bioassay, 24 h exposure; type: in vivo; conditions: Table 5, larvae resistant to deltamethrin and temephos, 24 h exposure; for LC50: Anopheles sinensis, read-out: LC50 (mg/L) (95% CI); for Slope ± SE: probit slope
Experimental: as §1, §2, §3

[5] = test system: third-instar larvae of insecticide-susceptible Aedes albopictus; assay: contact mortality bioassay, 24 h exposure; type: in vivo; conditions: for LC50: Aedes albopictus, read-out: LC50 (mg/L) (95% CI); for LC50 / LC90 (mg/L) (95% CI) / Slope ± SE: Table 4, 24 h exposure; for Slope ± SE: probit slope
Experimental: as §1, §2, §3

[6] = test system: larvae of four mosquito species (Cx. pipiens pallens, Ae. aegypti, Ae. albopictus, and An. sinensis); assay: contact mortality bioassay, range over four mosquito species; type: in vivo; conditions: 24 h
Experimental: as §1, §2, §3

[7] = Table 7, structure-activity series, read-out: LC50 (mg/L) (95% CI)
[8] = Table 7, structure-activity series
[9] = Table 6, structure-activity series, read-out: LC50 (mg/L) (95% CI)
[10] = Table 6, structure-activity series
[11] = Table 3, read-out: LC50 (mg/L) (95% CI)
[12] = Table 3, listed as Pure linoleic acid
[13] = Table 2, KS-CP strain, read-out: LC50 (mg/L) (95% CI)
[14] = Table 3, listed as Pure palmitic acid
[15] = Table 2, KS-CP strain, listed as Pure palmitic acid

Sequence of acetylcholinesterase (AChE) from third-instar Ae. aegypti larvae (A4GND7 37-679): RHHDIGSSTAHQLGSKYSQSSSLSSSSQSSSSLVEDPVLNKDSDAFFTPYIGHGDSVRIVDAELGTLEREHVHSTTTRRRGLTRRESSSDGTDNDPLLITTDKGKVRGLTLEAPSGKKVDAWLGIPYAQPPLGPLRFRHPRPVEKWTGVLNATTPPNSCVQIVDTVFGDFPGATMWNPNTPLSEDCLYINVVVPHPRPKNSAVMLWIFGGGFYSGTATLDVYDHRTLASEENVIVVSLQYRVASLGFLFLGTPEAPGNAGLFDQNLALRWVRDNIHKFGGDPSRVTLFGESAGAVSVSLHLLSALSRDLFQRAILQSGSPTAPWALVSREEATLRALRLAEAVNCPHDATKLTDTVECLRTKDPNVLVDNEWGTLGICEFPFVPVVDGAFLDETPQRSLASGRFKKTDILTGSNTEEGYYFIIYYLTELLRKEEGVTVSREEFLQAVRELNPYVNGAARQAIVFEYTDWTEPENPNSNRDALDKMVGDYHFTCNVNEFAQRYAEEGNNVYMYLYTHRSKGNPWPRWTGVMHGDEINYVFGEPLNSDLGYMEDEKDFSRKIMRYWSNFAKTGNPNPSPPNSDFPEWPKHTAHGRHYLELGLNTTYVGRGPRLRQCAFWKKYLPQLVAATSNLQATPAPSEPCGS

## CC(C)=C1C[C@H]2C(=C(C)C(=O)C1=O)CC[C@]2(C)O [9-oxoneoprocurcumenol]
Mosquito species larvae; terpenoids
  LC50: 5.81 µg/mL (≈ 23.4 µM)

## O=C(O)/C=C/c1ccc(O)c(O)c1 [Caffeic acid, caffeic acid]
[1]; [7]
  LC50: 124 mg/L (≈ 691 µM)
[1]; [8]
  LC90 (mg/L) (95% CI): 235.9 (204.2–296.1) mg/L
[2]; [9]
  LC50: 119 mg/L (≈ 662 µM)
[2]; [10]
  LC90 (mg/L) (95% CI): 245.6 (208.1–323.3) mg/L

## COP(=O)(OC)OC=C(Cl)Cl [Dichlorvos, dichlorvos, reference compound]
[1]; read-out: LC50 (mg/L) (95% CI), Table 7, structure-activity series
  LC50: 0.158 mg/L (≈ 0.715 µM)
[1]; [8]
  LC90 (mg/L) (95% CI): 0.660 (0.505–0.963) mg/L
[2]; read-out: LC50 (mg/L) (95% CI), Table 6, structure-activity series
  LC50: 0.103 mg/L (≈ 0.466 µM)
[2]; [10]
  LC90 (mg/L) (95% CI): 0.504 (0.380–0.761) mg/L
[3]
  AChE inhibitory activity (in words): did not differ significantly

## C=CCc1ccc(O)c(OC)c1 [Eugenol, eugenol]
[1]; [7]
  LC50: 75.8 mg/L (≈ 461 µM)
[1]; [8]
  LC90 (mg/L) (95% CI): 141.4 (126.3–166.2) mg/L
[2]; [9]
  LC50: 74.3 mg/L (≈ 453 µM)
[2]; [10]
  LC90 (mg/L) (95% CI): 143.3 (127.2–170.3) mg/L

## COc1ccccc1O [Guaiacol, guaiacol]
[1]; [7]
  LC50: 115 mg/L (≈ 930 µM)
[1]; [8]
  LC90 (mg/L) (95% CI): 223.1 (188.3–292.1) mg/L
[2]; [9]
  LC50: 108 mg/L (≈ 868 µM)
[2]; [10]
  LC90 (mg/L) (95% CI): 205.6 (176.3–260.9) mg/L

## CCCCC/C=C\C/C=C\CCCCCCCC(=O)O [Linoleic acid, (9Z,12Z)-9,12-octadecadienoic acid]
[4]
  LC50: 7.5 mg/L (≈ 26.7 µM)
  LC90 (mg/L) (95% CI): 16.04 (14.05–19.06) mg/L
  Slope ± SE: 3.9 ± 0.56
[1]; [11]
  LC50: 7.19 mg/L (≈ 25.6 µM)
[1]; Table 3, listed as Natural linoleic acid
  LC90 (mg/L) (95% CI): 27.04 (20.52–43.96) mg/L
[1]; [12]
  LC50 (mg/L) (95% CI): 7.34 (5.58–8.92) mg/L
  LC90 (mg/L) (95% CI): 29.70 (23.19–43.79) mg/L
[1]; from 24 h LC50 values
  times less toxic than temephos: 575 times
[2]; [13]
  LC50: 6.97 mg/L (≈ 24.9 µM)
[2]; Table 2, KS-CP strain, listed as Natural linoleic acid
  LC90 (mg/L) (95% CI): 19.41 (15.94–26.34) mg/L
[2]; Table 2, KS-CP strain, listed as Pure linoleic acid
  LC50 (mg/L) (95% CI): 8.36 (6.09–10.40) mg/L
[2]; from 24 h LC50 values
  times less toxic than temephos: 430 times
[5]
  LC50: 7.28 mg/L (≈ 26 µM)
  LC90 (mg/L) (95% CI): 27.81 (20.95–46.02) mg/L
  Slope ± SE: 4.4 ± 0.59
[5]; from 24 h LC50 values
  times less toxic than temephos: 552 times
[6]
  LC50: 6.97 to 7.5 µg/mL (≈ 24.9 to 26.7 µM)

## C=CCc1cc(OC)c(O)c(OC)c1 [Methoxyeugenol, methoxyeugenol]
[1]; [7]
  LC50: 9.15 mg/L (≈ 47.1 µM)
[1]; [8]
  LC90 (mg/L) (95% CI): 29.46 (22.83–44.88) mg/L
[2]; [9]
  LC50: 8.4 mg/L (≈ 43.2 µM)
[2]; [10]
  LC90 (mg/L) (95% CI): 25.52 (20.27–36.92) mg/L
[3]
  AChE inhibitory activity (in words): lowest of all of the compounds that were examined

## CCCCCCCCCCCCCCCC(=O)O [Palmitic acid, hexadecanoic acid]
[4]
  LC50: 47.6 mg/L (≈ 186 µM)
  LC90 (mg/L) (95% CI): 192.8 (148.1–282.2) mg/L
  Slope ± SE: 2.1 ± 0.22
[1]; [11]
  LC50: 33.5 mg/L (≈ 131 µM)
[1]; Table 3, listed as Natural palmitic acid
  LC90 (mg/L) (95% CI): 129.3 (99.59–189.2) mg/L
[1]; [14]
  LC50 (mg/L) (95% CI): 36.49 (29.30–44.83) mg/L
  LC90 (mg/L) (95% CI): 204.1 (139.4–378.1) mg/L
[2]; [13]
  LC50: 32.6 mg/L (≈ 127 µM)
[2]; Table 2, KS-CP strain, listed as Natural palmitic acid
  LC90 (mg/L) (95% CI): 112.3 (88.96–156.2) mg/L
[2]; [15]
  LC50 (mg/L) (95% CI): 34.92 (29.48–40.76) mg/L
  LC90 (mg/L) (95% CI): 119.3 (94.38–166.4) mg/L
[5]
  LC50: 36.9 mg/L (≈ 144 µM)
  LC90 (mg/L) (95% CI): 135.1 (104.3–196.9) mg/L
  Slope ± SE: 3.1 ± 0.38
[6]
  LC50: 32.6 to 47.6 µg/mL (≈ 127 to 186 µM)
Mosquito species larvae; flavonoids and fatty acids
  LC50: 34.50 to 42.96 µg/mL

## C=CC[C@@]12C=C(OC)C(=O)C=C1O[C@H](c1ccc3c(c1)OCO3)[C@H]2C [burchellin]
Mosquito species larvae; neolignans
  LC50: 15.5 µg/mL (≈ 45.5 µM)

## N#C[C@@H](O[C@@H]1O[C@H](CO)[C@@H](O)[C@H](O)[C@H]1O)c1ccc(O)cc1 [dhurrin]
Mosquito species larvae; cyanogenic glycosides
  LC50: 12 µg/mL (≈ 38.5 µM)
